Experimental findings from PubChem BioAssay AID1195 (EPA DSSTox, 2008) are described below.

The subject of the data set is human maximum recommended daily dose, FDA database. Nature of the data set: DSSTox (FDAMDD) FDA Maximum (Recommended) Daily Dose Database. Conditions: hits give low values. An excerpt:
The Food and Drug Administration (FDA) Center for Drug Evaluation and Research, Office of Pharmaceutical Science, Informatics and Computational Safety Analysis Staff's Maximum Recommended Daily Dose (FDAMDD) database contains values for over 1200 pharmaceuticals listed in Martindale: The Extra Pharmacopoeia (1973, 1983, and 1993) and The Physicians' Desk Reference (1995 and 1999). Some classes of chemicals were excluded from the FDAMDD database due to their unsuitability for most QSAR modeling programs. These were inorganic chemicals, high molecular weight polymers (>5000 Daltons), fibers, salts, mixtures of organic chemicals, and small molecules (<100 Daltons). FDAMDD is the non-proprietary portion of the database that was used in the QSAR analysis reported in the Main Citation. DSSTox FDAMDD has fewer substance records than the original MRDD Source database due to consolidation of partial structures (i.e., complexed entities) into a single record and elimination of duplicate entries. DSSTox FDAMDD also differs from the MRDD Source database in presenting complete structural information pertaining to the actual salt or complexed form corresponding to the listed ChemicalName and CASRN. According to the Source authors, there are a number of cases where multiple related forms or derivatives of a drug were listed as separate records but were assumed to fall under the same clinical toxicity assessment and, therefore, assigned the same Dose_MRDD_mg activity value. For the DSSTox FDAMDD, we have labeled these derivatives in the ChemClass_MRDD_grouping field and provide their counts in the ChemicalReplicateCount field to highlight their special nature.
Maximum recommended daily dose (or maximum recommended therapeutic dose) values were determined from pharmaceutical clinical trials that employed an oral route of exposure and daily treatments, usually for 3-12 months. Drugs were given as single or divided dose treatment regimens to achieve desired pharmacological effects. Roughly 5% of the pharmaceuticals in the FDAMDD data file were antineoplastics and anesthetics and were administered intravenously and/or intramuscularly. When separate MRDDs were reported for different routes of exposure, only the oral MRDD was included in the data file and only MRDD values reported for the average adult patient were used. Pharmaceuticals that are administered orally are usually tested over a limited range of doses and have MRDDs reported as mg/day. The mg/day unit was converted to mg/kg-body weight (bw)/day based upon an average adult weighing 60 kg. In contrast, the dose unit for most antineoplastic drug MRDDs is reported as mg/m2 which was converted to mg/kg-bw/day using the formula mg/kg-bw/day = mg/m2/37 for an average adult. Additionally, a few drugs had MRDDs reported in parts per million (ppm) which were converted to mg/kg-bw/day on the basis that 1000 ppm equals 25 mg/kg-bw/day for an average 60 kg adult. Activity Score is mapping of LOG10(1/Dose_MRDD_mmol) spanning activity range [MIN, MAX] onto Integer 1-100 Activity range, where 100 is highest potency and 1 is lowest potency: ActivityScore = 100 * INTEGER[(LOGINV_MRDD_mmol - MIN)/(MAX […] MIN)]. Activity Outcome is "active" for all substances, since Dose_MRDD_mmol is reported for all substances.

Where [1] appears, read: TherapeuticCategory: diagnostic aid.
Setting [2] is: TherapeuticCategory: antiemetic.
[3] abbreviates: TherapeuticCategory: antineoplastic.
Where [4] appears, read: TherapeuticCategory: antibacterial.
The mark [5] stands for this setting: TherapeuticCategory: antihypertensive, antianginal.
[6] abbreviates: TherapeuticCategory: vasodilator.
Setting [7] is: TherapeuticCategory: antihyperlipoproteinemic.

For `C1CNCCN1`, the maximum recommended daily dose (mmol/kg-bw/day) (TherapeuticCategory: anthelmintic) was 0.774.
On to `CC(C)(C)NC(=O)[C@@H]1CN(Cc2cccnc2)CCN1C[C@@H](O)C[C@@H](Cc1ccccc1)C(=O)N[C@H]1c2ccccc2C[C@H]1O`, for which the maximum recommended daily dose (mmol/kg-bw/day) (TherapeuticCategory: antiviral) is 0.0264.
With `CCOC(=O)[C@H](CCc1ccccc1)N[C@@H](C)C(=O)N1Cc2ccccc2C[C@H]1C(=O)O`, the maximum recommended daily dose (mmol/kg-bw/day) (TherapeuticCategory: antihypertensive, ACE inhibitor) was 0.00303.
As to `CN(C(=O)CC(=O)N(C)c1c(I)c(C(=O)NC(CO)C(O)CO)c(I)c(C(=O)NC(CO)C(O)CO)c1I)c1c(I)c(C(=O)NC(CO)C(O)CO)c(I)c(C(=O)NC(CO)C(O)CO)c1I` (configuration not stated), under setting [1], the maximum recommended daily dose (mmol/kg-bw/day) is 0.0615.
For the compound `CN1CCN(CCCN2c3ccccc3Sc3ccc(Cl)cc32)CC1`, the maximum recommended daily dose (mmol/kg-bw/day) under setting [2] was 0.00447.
As for `CCCC[N+]1(C)[C@@H]2CC(OC(=O)[C@H](CO)c3ccccc3)C[C@H]1[C@@H]1O[C@@H]12` (some centres not stated), the maximum recommended daily dose (mmol/kg-bw/day) (TherapeuticCategory: antispasmotic) is 0.00302.
Consider `O=c1[nH]c(=O)n(C2CCCO2)cc1F` (configuration not stated) (tested in a mixture with another compound), for which, under setting [3], the maximum recommended daily dose (mmol/kg-bw/day) was 0.0641.
Take `C[C@@H](N)[C@@H](O)c1ccccc1`: under “TherapeuticCategory: decongestant, anorexic”, the maximum recommended daily dose (mmol/kg-bw/day) was 0.0198.
Turning to `NC1=NC(=O)C(c2ccccc2)O1` (configuration not stated), the maximum recommended daily dose (mmol/kg-bw/day) (TherapeuticCategory: CNS stimulant) was 0.0107.
In the case of `CCC(=O)C(CC(C)N(C)C)(c1ccccc1)c1ccccc1` (configuration not stated), the maximum recommended daily dose (mmol/kg-bw/day) (TherapeuticCategory: narcotic analgesic) was 0.00162.
`CC1C(c2ccccc2)OCCN1C` (configuration not stated): the maximum recommended daily dose (mmol/kg-bw/day) (TherapeuticCategory: anorexic) was 0.0183.
For the compound `CC[C@]1(O)C[C@H]2CN(CCc3c([nH]c4ccccc34)[C@@](C(=O)OC)(c3cc4c(cc3OC)N(C)[C@H]3[C@@](O)(C(N)=O)[C@H](O)[C@]5(CC)C=CCN6CC[C@]43[C@@H]65)C2)C1`, under setting [3], the maximum recommended daily dose (mmol/kg-bw/day) is 0.000143.
For `C=C1/C(=C\C=C2/CCC[C@]3(C)[C@@H]([C@H](C)CCCC(C)(C)O)CC[C@@H]23)C[C@@H](O)C[C@@H]1O`, under “TherapeuticCategory: calcium regulator”, the maximum recommended daily dose (mmol/kg-bw/day) was 1.2e-07.
As for `CC(=O)Nc1c(I)c(C(=O)N[C@H]2C(O)O[C@H](CO)[C@@H](O)[C@@H]2O)c(I)c(N(C)C(C)=O)c1I` (some centres not stated), the maximum recommended daily dose (mmol/kg-bw/day) under setting [1] was 0.132.
For `O=C(O)CN(CCN(CC(=O)O)CC(=O)O)CC(=O)O`, the maximum recommended daily dose (mmol/kg-bw/day) (TherapeuticCategory: pharmaceutic aid) was 0.24.
With `CC1(C)S[C@@H]2[C@H](NC(=O)COc3ccccc3)C(=O)N2[C@H]1C(=O)O`, the maximum recommended daily dose (mmol/kg-bw/day) under setting [4] was 0.0713.
As to `COCCc1ccc(OCC(O)CNC(C)C)cc1` (configuration not stated), under setting [5], the maximum recommended daily dose (mmol/kg-bw/day) is 0.0249.
`C=CCN1CC[C@]23CCCC[C@H]2[C@H]1Cc1ccc(O)cc13`: the maximum recommended daily dose (mmol/kg-bw/day) (TherapeuticCategory: narcotic antagonist) was 0.000235.
As for `Nc1ncnc2c1ncn2[C@@H]1O[C@H](CO)[C@@H](O)[C@H]1O`, the maximum recommended daily dose (mmol/kg-bw/day) (TherapeuticCategory: antiarrhythmic) was 0.00748.
On to `CO[C@@]1(NC(=O)Cc2cccs2)C(=O)N2C(C(=O)O)=C(COC(N)=O)CS[C@@H]21`, for which the maximum recommended daily dose (mmol/kg-bw/day) under setting [4] was 0.468.
As to `CC(CCc1ccccc1)NC(C)C(O)c1ccc(O)cc1` (configuration not stated), the maximum recommended daily dose (mmol/kg-bw/day) under setting [6] was 0.00267.
For `CCCc1nc2c(C)cc(-c3nc4ccccc4n3C)cc2n1Cc1ccc(-c2ccccc2C(=O)O)cc1`, the maximum recommended daily dose (mmol/kg-bw/day) (TherapeuticCategory: antihypertensive) is 0.00258.
On to `N[C@@H](Cc1cc(I)c(Oc2cc(I)c(O)c(I)c2)c(I)c1)C(=O)O`, for which the maximum recommended daily dose (mmol/kg-bw/day) (TherapeuticCategory: hyperthyroidism) was 1.07e-05.
As for `CNS(=O)(=O)CCc1ccc2[nH]cc(C3CCN(C)CC3)c2c1`, where the note is “TherapeuticCategory: antimigraine, vasoconstrictor”, the maximum recommended daily dose (mmol/kg-bw/day) was 0.000248.
Turning to `COC(=O)C1=C(C)NC(C)=C(C(=O)OCC(C)C)C1c1ccccc1[N+](=O)[O-]` (configuration not stated), under setting [5], the maximum recommended daily dose (mmol/kg-bw/day) is 0.00172.
Take `CCC1(c2ccccc2)NC(=O)N(C)C1=O` (configuration not stated): the maximum recommended daily dose (mmol/kg-bw/day) (TherapeuticCategory: anticonvulsant) is 0.0458.
Turning to `O=C(O)CN(CCN(CC(=O)O)CC(=O)O)CCN(CC(=O)O)CC(=O)O`, the maximum recommended daily dose (mmol/kg-bw/day) (TherapeuticCategory: chelating agent) is 0.0425.
As to `CC1=C(C(=O)O)N2C(=O)[C@@H](NC(=O)[C@H](N)c3ccc(O)cc3)[C@H]2SC1`, the maximum recommended daily dose (mmol/kg-bw/day) under setting [4] was 0.046.
On the same count and under the same terms, the figure for `CO/N=C(\C(=O)N[C@@H]1C(=O)N2C(C(=O)O)=C(CSc3nnnn3C)CS[C@H]12)c1csc(N)n1` is 0.13.
In the case of `CC[C@H](C)C(=O)O[C@H]1C[C@H](O)C=C2C=C[C@H](C)[C@H](CC[C@@H](O)C[C@@H](O)CC(=O)O)[C@H]21`, the maximum recommended daily dose (mmol/kg-bw/day) under setting [7] was 0.00157.
Regarding `OCC(Br)(Br)Br`, the maximum recommended daily dose (mmol/kg-bw/day) (TherapeuticCategory: anesthetic) is 0.354.
In the case of `CC1(C)S[C@@H]2[C@H](N=CN3CCCCCC3)C(=O)N2[C@H]1C(=O)O`, the maximum recommended daily dose (mmol/kg-bw/day) under setting [4] is 0.0461.
In the case of `COc1cc(C(=O)NCc2ccc(OCCN(C)C)cc2)cc(OC)c1OC`, under setting [2], the maximum recommended daily dose (mmol/kg-bw/day) is 0.043.
Regarding `O=[N+]([O-])O[C@@H]1CO[C@H]2[C@@H]1OC[C@@H]2O`, the maximum recommended daily dose (mmol/kg-bw/day) (TherapeuticCategory: antianginal) was 0.0105.
Take `CC(=O)Oc1cc(C(C)C)c(OCCN(C)C)cc1C`: the maximum recommended daily dose (mmol/kg-bw/day) under setting [6] is 0.0191.
In the case of `CCCc1nn(C)c2c(=O)[nH]c(-c3cc(S(=O)(=O)N4CCN(C)CC4)ccc3OCC)nc12`, for the setting “TherapeuticCategory: erectile disfunction treatment”, the maximum recommended daily dose (mmol/kg-bw/day) is 0.00352.
Take `O=C(O)Cc1ccccc1Nc1c(Cl)cccc1Cl`: the maximum recommended daily dose (mmol/kg-bw/day) (TherapeuticCategory: anti inflammatory) was 0.0127.
On to `C[C@H](N)[C@H](O)c1cccc(O)c1`, for which the maximum recommended daily dose (mmol/kg-bw/day) (TherapeuticCategory: adrenergic) was 0.0498.
Regarding `CC1=C(/C=C/C(C)=C/C=C/C(C)=C/C=C/C=C(C)/C=C/C=C(C)/C=C/C2=C(C)C(=O)CCC2(C)C)C(C)(C)CCC1=O`, the maximum recommended daily dose (mmol/kg-bw/day) (TherapeuticCategory: antioxidant) is 0.0443.
For the compound `CCC(OC(C)=O)C(CC(C)N(C)C)(c1ccccc1)c1ccccc1` (configuration not stated), for the setting “TherapeuticCategory: none”, the maximum recommended daily dose (mmol/kg-bw/day) was 0.00659.
As to `CC(C)=CCOc1ccc(/C=C/C(=O)c2ccc(OCC=C(C)C)cc2OCC(=O)O)cc1`, the maximum recommended daily dose (mmol/kg-bw/day) (TherapeuticCategory: antiulcerative) is 0.0111.
In the case of `CN(C)CCN(Cc1cccs1)c1ccccn1`, the maximum recommended daily dose (mmol/kg-bw/day) (TherapeuticCategory: antihistaminic) was 0.0255.
For the compound `CO/N=C(/C(=O)N[C@@H]1C(=O)N2C(C(=O)OC(C)OC(=O)C(C)(C)OC)=C(COC(N)=O)CS[C@H]12)c1ccco1` (some centres not stated), the maximum recommended daily dose (mmol/kg-bw/day) under setting [4] was 0.0294.
For the compound `C#C[C@]1(O)CC[C@H]2[C@@H]3CCC4=CCCC[C@@H]4[C@H]3C(=C)C[C@@]21CC`, the maximum recommended daily dose (mmol/kg-bw/day) (TherapeuticCategory: progestogen) is 8.05e-06.
With `COC(=O)[C@H](c1ccccc1Cl)N1CCc2sccc2C1`, the maximum recommended daily dose (mmol/kg-bw/day) (TherapeuticCategory: antithrombotic) was 0.00388.
In the case of `CN1[C@@H](CC(=O)c2ccccc2)CCC[C@H]1C[C@H](O)c1ccccc1`, the maximum recommended daily dose (mmol/kg-bw/day) (TherapeuticCategory: respiratory stimulant) is 0.000495.
With `CCC(C)(C)C(=O)O[C@H]1C[C@@H](C)C=C2C=C[C@H](C)[C@H](CC[C@@H]3C[C@@H](O)CC(=O)O3)[C@H]21`, the maximum recommended daily dose (mmol/kg-bw/day) under setting [7] was 0.00159.
As to `CN(C)CCC(O)(c1ccccc1)c1ccccc1Cl` (configuration not stated), the maximum recommended daily dose (mmol/kg-bw/day) (TherapeuticCategory: antitussive) was 0.00576.
Regarding `CCOC(=O)/C=C(C)/C=C/C=C(C)/C=C/c1c(C)cc(OC)c(C)c1C`, the maximum recommended daily dose (mmol/kg-bw/day) (TherapeuticCategory: antipsoriatic) was 0.00423.
`C#CC(C)(O)CC` (configuration not stated): the maximum recommended daily dose (mmol/kg-bw/day) (TherapeuticCategory: hypnotic, sedative) is 0.17.
For `CCCCc1oc2ccccc2c1C(=O)c1cc(I)c(OCCN(CC)CC)c(I)c1`, the maximum recommended daily dose (mmol/kg-bw/day) (TherapeuticCategory: antiarrhythmic, antianginal) was 0.0414.
Consider `CN(C)CCCN1c2ccccc2Sc2ccc(Cl)cc21`, for which the maximum recommended daily dose (mmol/kg-bw/day) (TherapeuticCategory: antiemetic, antipsychotic) was 0.0524.
